# Data as given in US5846720A, “Methods of determining chemicals that modulate expression of genes associated with cardiovascular disease” (Oncogene Science, Inc., priority 1996, dated 1998).
# “Also recorded” adds a separate entry of the source.
# Legend:
# [1] = system: GM-CSF mRNA; assay: S1 nuclease protection, GM-CSF mRNA; type: cell-based, human; details: 5637 cells, 18 hours
# Protocol: (§1) S1 Nuclease protection assays were carried out as described in reference 118.
# (§2) To further confirm, that compounds that had been identified in a luciferase expression assay using a G-CSF specific reporter cell line would be active in inducing transcription of the endogenous G-CSF gene, cells from the parental cell line 5637 used to construct the reporter cell line were incubated with cycloheximide (25 ug/ml), DMSO (0.5%,solvent control) and low, medium and high concentrations of the compounds 542 (10, 50, 250 μM),1255 (20, 100, 500 uM), 1793(0.25, 1.2, 6.25 μM) and 1904 (20, 100 uM) for 18 hours. RNA was extracted and the concentration of G-CSF, GM-CSF and gamma-actin mRNA was determined by the S1 protection method as described in above. The positions of G-CSF GM-CSF and gamma-actin specific protected fragments are indicated (G, GM, A) at the left side of the gel (FIG. 37).
# [2] = system: 5637 bladder carcinoma cells; assay: G-CSF secretion, two-antibody sandwich immunoassay; type: cell-based, human; details: 48 hours, serum-containing media
# Protocol: Supernatants from 5637 bladder carcinoma cells incubated with chemicals registering as positives in the G-CSF promoter/luciferase high throughput assay were assayed for secreted G-CSF protein using the two-antibody sandwich immunoassay (83). The G-CSF Assay kit manufactured by Oncogene Science, Inc. was used and the manufacturer's instructions were followed.
# The levels of G-CSF in the cell supernatants were determined by a sandwich-antibody assay as described in above (FIG. 42).
# [3] = system: FRE cells; assay: MTT respiratory inhibition cytotoxicity assay versus luciferase induction in G21; type: cell-based; details: G21 reporter cells vs FRE cells, 6 hours
# Source text: To determine cytotoxic concentrations of chemicals registering as positives in the high throughput luciferase assay the MTT cytotoxicity assay was employed (82). In this assay, a tetrazolium salt [3-(4,5-dimethylthiazol-2-yl)-2,5-diphenyl -tetrazolium bromide, MTT] is reduced to a colored formazon product by reducing enzymes present only in living metabolically active cells.
# To address the question whether the induction of G-CSF, and GM-CSF transcription by the compound #542 was a specific effect or rather a phenomenon linked to a potential sensitivity of these promoters to stress exerted by toxic compounds, the concentration dependency of induction of luciferase activity in the reporter cell line G21 was compared to the concentration dependency of inhibition of respiration in FRE cells. Cells were seeded into 96 well microtiter plates (20,000 cells/well) and cultured overnight. Compound #542 was added at various concentrations and the cells were incubated for 6 hours. Luciferase activity was determined as described above. The MTT-colorimetric assay was carried out on identically treated samples of FRE cells. Induction of luciferase reporter signal (plain line) and on inhibition of respiration (dashed line) are plotted versus the concentrations of compound (FIG. 40). […]
# [4] = system: G-CSF mRNA; assay: S1 nuclease protection, G-CSF mRNA; type: cell-based, human; details: for amount of G-CSF mRNA (S1 nuclease protection): 5637 cells, 18 hours
# Protocol: as §1, §2
# [5] = system: G-CSF promoter; assay: G-CSF promoter/luciferase reporter assay (high-throughput screen I), G21 cells; details: for G-CSF promoter induction: G21, 7 hours, serum-free
# [6] = system: G-CSF mRNA; assay: Northern blot of endogenous G-CSF mRNA; type: cell-based, human; details: U5637 cells, relative to DMSO
# Protocol: (§3) Total cellular RNA was isolated from cells following incubation with chemicals as described above and electrophoresed in a 1% Agarose Formaldehyde gel. The RNA was transferred to Duralon-UV nylon filters (Stratagene, La Jolla, Calif.) using the manufacturer's recommended protocol. The filters were prehybridized for 4 hours (prehybridizing solution=5× SSC, 50 mM sodium pyrophosphate, 10× Denhardt's solution, 10% dextran sulfate, 7% SDS and 250 μg/ml denatured ssDNA) and then hybridized in the same solution for 16 hours at 65° C. in the presence of specific probes. The G-CSF probe was a 0.6 kb AflII to Xhol fragment which contained most of exon 5 of the human G-CSF gene. The β-actin (Oncor, Gaithersburg, Md.) probe was used as a control probe to normalize for the total amount of RNA. The probes were labeled with alpha-32P dCTP using a random primed DNA labeling kit (Amersham, Arlington, Ill.). Following hybridization, filters were washed three times at room temperature with 1× SSC, 0.13% SDS and three times at 65° C. with 0.2× SSC, 0.1% SDS. Filters were first probed with the G-CSF specific probe and then reprobed with β-actin-probe. Exposure to x-ray film was performed overnight. Bands were excised and counted in a liquid scintillation counter (LKB, Gaithersburg, Md.), and counts obtained with the G-CSF specific probe were normalized relative to the counts obtained with the β-Actin specific probe.
# Also shown are the effects of the solvent, DMSO, used to dissolve the chemicals and a proteinaceous positive regulator, interferon-gamma.
# [7] = system: beta-actin mRNA; assay: Northern blot of actin mRNA (control); type: cell-based, human; details: U5637 cells
# Protocol: as §3, with “β-actin-probe. […]” for “β-actin-probe. Exposure to x-ray film was performed overnight.”, “probe. […]” for “probe.”
# [8] = in vivo; cited from earlier work
# [9] = system: HMGCoA reductase; details: animals, high doses; cited from earlier work
# [10] = cited from earlier work; for decrease in serum cholesterol levels: compared with HMGCoA reductase inhibitors like lovastatin
# [11] = system: M-CSF promoter; assay: M-CSF (CSF-1) promoter/luciferase induction, M2071, M2085, M2086; type: cell-based, human; details: 2,000 units/ml, 16 hours, all three M-CSF clones
# Protocol: Human promyelocytic leukemia HL-60 cells are known to express CSF-1 (74). They were transfected with linearized pCSF1-102 (FIG. 21) and linearized PTKneo3 using electroporation as described above. Three neomycin resistant clones were generated: --M2071, M2085 and M2086. All three responded to a 16 hour incubation with 2000 units/ml interferon-gamma by a 20-fold increase of luciferase expression. M2086 was selected for use in the high throughput screen. The WI-38 human fibroblast cell line is also capable of producing CSF-1. Stable transfectants are also prepared from these for screening in a different cellular background. There is evidence for tissue-specific modulation of CSF-1 gene expression, and since the major source of the CSF-1 which stimulates the growth of macrophages at atherosclerotic plaques is unknown, screening with more than one cell line may be useful.
# (§4) Promoter induction experiments were also conducted with the GM-CSF reporter cell lines GM1073, GM1088 and GM1105, which were all shown to contain correctly inserted constructs (see above). […] Luciferase expression of clones GM1088 and GM1105 was induced by PMA 2.8 fold and 2 fold, respectively, while TNF-alpha induced both clones 2 fold. All three M-CSF clones responded to a 16-hour incubation with 2,000 units/ml Interferon-gamma by a 20-fold increase of luciferase expression from the M-CSF promoter.
# [12] = system: GM-CSF promoter; assay: GM-CSF promoter/luciferase induction by known inducers, GM1073, GM1088, GM1105; type: cell-based, human
# Protocol: 6 clones generated by electroporation of U5637 cells with pGMLL103 NEO3 (FIG. 26) were subjected to further analysis as described above for G-CSF: --GM1073 (10 μg; circular); GM1081, GM1088 and GM1090 (5 μg; linear); and GM1098 and GM1105 (10 μg; linear). Clone GM1073 was selected for use in the high throughput screen.
# as §4
# [13] = system: G-CSF promoter; assay: G-CSF promoter/luciferase induction by known inducers, clone G1002; type: cell-based, human
# Protocol: U5637 bladder carcinoma cells were transfected with pGVU150 (FIG. 21) or pGVU140 plus pTKNeo3 either by electroporation using a BRL (Gaithersburg, Md.) Cellporator electroporation device or by lipofection using BRL lipofectin and following the manufacturer's protocol. Clones were analyzed for luciferase expression and those testing positive expanded further and frozen in liquid nitrogen. Further analysis of 6 clones (G1002, G2005, G2071, G2085, G3014, G3031) included Southern blotting, reaction to known inducers, satisfactory attachment to microtiter plates and acceptable standard deviation in multiple luciferase expression assays. Clone G1002 was selected for use in the high throughput screen.
# Cell clones with correctly integrated promoter/reporter constructs were analyzed for correct reaction to known transcriptional inducers. […] Both TNF-alpha and PMA induction levels of clone G1002 were influenced by the presence or absence of epidermal growth factor (EGF). […] The 9.3 fold induction by PMA in the absence of EGF was reduced to 5.6 fold by including EGF in the serum-free incubation mixture. Similar differences were observed, when EGF was substituted by 10% fetal calf serum.
molecule,measurement,setting,value
Nc1nc(=O)n([C@H]2C[C@H](O)[C@@H](CO)O2)cc1Br [#542],amount of GM-CSF mRNA (S1 nuclease protection),[1],increased the amount of GM-CSF mRNA
same,G-CSF secretion,[2],increased G-CSF secretion
same,factor between ED50 for induction of luciferase activity and ED50 for inhibition of respiration,[3],~10 factor
same,amount of G-CSF mRNA (S1 nuclease protection),[4],increased mRNA production
same,levels of endogenous G-CSF mRNA,[4]; method not stated at the place,stimulate levels of endogenous G-CSF mRNA
CN(C)c1ccc(C(=C2C=CC(=[N+](C)C)C=C2)c2ccc([N+](C)(C)C)cc2)cc1 [#670],activation of the G-CSF promoter (dose response),[5]; G21 cells,specifically activated the G-CSF promoter
same,EC50,"[5]; read-out: ED50 (concentration of chemical resulting in 50% maximal stimulation), G-CSF reporter cell line G21, range over the three chemicals",5 to 70 µM
same,effect on endogenous G-CSF mRNA (Northern blot),[6],increased G-CSF mRNA production; also recorded: stimulated production of G-CSF mRNA
same,effect on actin mRNA (Northern blot),[7],not of actin mRNA
Clc1cc(Cl)cc(Br)c1 [#1255],effect on endogenous G-CSF mRNA (Northern blot),[6],increased G-CSF mRNA production; also recorded: stimulated production of G-CSF mRNA
same,effect on actin mRNA (Northern blot),[7],not of actin mRNA
same,amount of G-CSF mRNA (S1 nuclease protection),[4],increased mRNA production
CN(C)C(=S)SCC#N [#1793],amount of GM-CSF mRNA (S1 nuclease protection),[1],increased the amount of GM-CSF mRNA
same,amount of G-CSF mRNA (S1 nuclease protection),[4],increased mRNA production
CC[C@H](C)C(=O)O[C@H]1C[C@@H](C)C=C2C=C[C@H](C)[C@H](CC[C@@H]3C[C@@H](O)CC(=O)O3)[C@H]21 [lovastatin],most frequently reported side effects,[8],"Gastrointestinal disturbances, including flatulence, diarrhea, constipation and nausea"
CC[C@H](C)C(=O)O[C@H]1C[C@@H](C)C=C2C=C[C@H](C)[C@H](CC[C@@H]3C[C@@H](O)CC(=O)O3)[C@H]21 [mevinolin],HMGCoA reductase levels,[9],increased levels of HMGCoA reductase
GM-CSF: colony-stimulating factor GM-CSF,decrease in serum cholesterol levels,[10],profound decreases in serum cholesterol levels
same,average decrease in serum cholesterol,[10]; in vivo,37%
"Interferon-gamma: a proteinaceous positive regulator, interferon-gamma",increase of luciferase expression from the M-CSF promoter,[11],20 fold
same,effect on endogenous G-CSF mRNA (Northern blot),[6],increased G-CSF mRNA production
TNF-alpha,G-CSF promoter induction,[5]; absence of EGF,2.1 fold
same,G-CSF promoter induction,[5]; presence of EGF,2.8 fold
same,G-CSF secretion,[2],increased G-CSF secretion
same,GM-CSF promoter induction,[12]; clone GM1088,2 fold
same,GM-CSF promoter induction,[12]; clone GM1105,2 fold
same,G-CSF promoter induction,"[13]; G1002, 8.3 ng/ml, 10.5 hours, serum-containing media",2 fold
same,G-CSF promoter induction,"[13]; G1002, 7 hours, serum-free defined media with 20 ng/ml EGF",3 fold
same,G-CSF promoter induction,"[13]; G1002, 7 hours, serum-free, absence of EGF",4 fold
"CSF-1: colony-stimulating factor-1 (protein, UniProt P09603 33-554, looked up) Macrophage colony-stimulating …: EEVSEYCSHMIGSGHLQSLQRLIDSQMETSCQITFEFVDQEQLKDPVCYLKKAFLLVQDIMEDTMRFRDNTPNAIAIVQLQELSLRLKSCFTKDYEEHDKACVRTFYETPLQLLEKVKNVFNETKNLLDKDWNIFSKNCNNSFAECSSQDVVTKPDCNCLYPKAIPSSDPASVSPHQPLAPSMAPVAGLTWEDSEGTEGSSLLPGEQPLHTVDPGSAKQRPPRSTCQSFEPPETPVVKDSTIGGSPQPRPSVGAFNPGMEDILDSAMGTNWVPEEASGEASEIPVPQGTELSPSRPGGGSMQTEPARPSNFLSASSPLPASAKGQQPADVTGTALPRVGPVRPTGQDWNHTPQKTDHPSALLRDPPEPGSPRISSLRPQGLSNPSTLSAQPQLSRSHSSGSVLPLGELEGRRSTRDRRSPAEPEGGPASEGAARPLPRFNSVPLTDTGHERQSEGSFSPQLQESVFHLLVPSVILVLLAVGGLLFYRWRRRSHQEPQRADSPLEQPEGSPLTQDDRQVELPV",decrease in serum cholesterol levels,[10],profound decreases in serum cholesterol levels
